# Patent US8227428B2, “Anti-infammatory macrolide” (Glaxo Group Limited, priority 2009, dated 2012)
# Legend:
# [1] = system: Lung neutrophilia induced by bacterial lipopolysaccharide (LPS); assay: Lung neutrophilia induced by bacterial lipopolysaccharide (LPS) in male BALB/cJ mice; assay type: in vivo; settings: average; single dose 200 mg/kg i.p.; vs LPS challenged untreated animals
# Experimental: For intraperitoneal administration (i.p.) compounds are dissolved in a final concentration of 10 mg/mL. The required amount of compound is first dissolved in dimethylsulfoxide (DMSO, Sigma) and then diluted with 0.5% (w/v) methyl-cellulose so that the final DMSO concentration is 5% (v/v). The obtained solution is applied in a dose volume of 0.2 mL per 10 g of animal. Therefore, the compound dose is 200 mg/kg.
# Male BALB/cJ mice (Charles River, France), with an average weight of ˜30 g are randomly grouped (n=8 in testing group, 10 in positive control and 8 in negative control). Mice receive intraperitoneally (i.p.) a single dose of 200 mg/kg of test compound. Two hours after administration, 2 μg of LPS (from Escherichia coli serotype 0111:B4, Sigma), dissolved in sterile PBS in a volume of 60 μL, is intranasally administered to all experimental groups except the negative control group, which receive the same volume of vehicle (PBS). Animals are sacrificed approximately 24 hours after application of LPS in order to obtain bronchioalveolar lavage fluid (BALF), which is used to determine absolute number of cells and the percentage of neutrophils. Results are expressed as percentage decrease in total cell number and number of neutrophils in BALF of treated animals compared to positive control (LPS challenged, but untreated animals).
# [2] = In vitro stability in human plasma; assay type: in vitro ADME; settings: 37° C.
# Experimental: (§1) An in vitro stability study in human whole blood and plasma is carried out over 24 hours at 37° C. Drug-free freshly collected human blood (CPD—citrate-phosphate-dextrose is used for all blood collections as anticoagulant) and plasma are spiked with a previously prepared standard solution of test compound to a final concentration of 2000 ng/mL. For each compound blood and plasma are spiked in duplicate and incubated for 24 hours. Two separate aliquots of blood or plasma (50 μL) are sampled from each incubation mixture at 0, 15, 30, 60, 120, 240 and 1440 minutes. All aliquots are mixed with an equal volume of water (50 μL) and extracted with 300 μL of acetonitrile/methanol (2:1) containing internal standard (roxithromycin). The samples are then vortexed, centrifuged and analysed by LC/MS/MS (MRM mode). Results are expressed as the percentage of compound remaining, expressed as the ratio of analyte/internal standard.
# [3] = In vitro stability in human whole blood; assay type: in vitro ADME; settings: 37° C.
# Experimental: as §1
# [4] = system: Staphylococcus aureus ATCC13709; assay: Anti-bacterial screening, broth microdilution MIC; assay type: cell-based; settings: read-out: minimal inhibitory concentration (MIC)
# Experimental: (§2) Whole-cell antimicrobial activity of compounds against clinically relevant bacteria (Staphylococcus aureus ATCC13709, Streptococcus pneumoniae ATCC49619, Streptococcus pyogenes ATCC700294, Moraxella catarrhalis ATCC23246, Haemophilus influenzae ATCC49247 and Escherichia coli ATCC25922) is determined by broth microdilution using the Clinical and Laboratory Standards (CLSI) recommended procedure (Document M7-[…], Methods for Dilution Susceptibility Tests for Bacteria that Grow Aerobically). Compounds are dissolved in DMSO to produce a 50 mM stock solution. The stock solution is diluted to a concentration of 128 μg/mL in appropriate media (Haemophilus Test Medium for Haemophilus influenzae, Mueller-Hinton Broth for Staphylococcus aureus, Moraxella catarrhalis and Escherichia coli, and Mueller-Hinton Broth supplemented with 5% horse serum for Streptococcus pyogenes and Streptococcus pneumoniae) to produce a working solution. A Tecan Genesis 150 Workstation (Tecan Group Ltd. Mannedorf, Switzerland) is used to prepare serial two-fold dilutions (50 μL aliquots) of the working solution in a U-shape bottom 96 well microtitre plate. After the compounds are diluted, a 50 μL aliquot of the test isolate ( 1×10^6 cfu/ml) is added to each well of the microtitre plate. The final test concentrations range from 0.125-64 μg/mL. Inoculated plates are incubated at 35° C. in ambient air for 18 to 24 hours. The minimum inhibitory concentration (MIC) is determined as the lowest concentration of compound that inhibited visible growth.
# [5] = system: Streptococcus pyogenes ATCC700294; assay: Anti-bacterial screening, broth microdilution MIC; assay type: cell-based; settings: read-out: minimal inhibitory concentration (MIC)
# Experimental: as §2
# [6] = system: Streptococcus pneumoniae ATCC49619; assay: Anti-bacterial screening, broth microdilution MIC; assay type: cell-based; settings: read-out: minimal inhibitory concentration (MIC)
# Experimental: as §2
# [7] = system: Escherichia coli ATCC25922; assay: Anti-bacterial screening, broth microdilution MIC; assay type: cell-based; settings: read-out: minimal inhibitory concentration (MIC)
# Experimental: as §2
# [8] = system: Haemophilus influenzae ATCC49247; assay: Anti-bacterial screening, broth microdilution MIC; assay type: cell-based; settings: read-out: minimal inhibitory concentration (MIC)
# Experimental: as §2
# [9] = system: Moraxella catarrhalis ATCC23246; assay: Anti-bacterial screening, broth microdilution MIC; assay type: cell-based; settings: read-out: minimal inhibitory concentration (MIC)
# Experimental: as §2
SMILES,inhibition of the number of neutrophils in BALF [1],"stability in plasma ([2]; 2000 ng/mL, over 24 hours)","stability in whole blood ([3]; 2000 ng/mL, over 24 hours)",MIC [4] [µg/mL],MIC [5] [µg/mL],MIC [6] [µg/mL],MIC [7] [µg/mL],MIC [8] [µg/mL],MIC [9] [µg/mL],compound remaining in plasma ([2]; after 24 hours),compound remaining in whole blood ([3]; after 24 hours)
"CC[C@H]1OC(=O)[C@H](C)[C@@H](O[C@H]2C[C@@](C)(OC)[C@@H](OC(=O)CN(CC)CC)[C@H](C)O2)[C@H](C)[C@@H](O[C@@H]2O[C@H](C)C[C@H](N(C)C)[C@H]2O)[C@](C)(OC)C[C@@H](C)C(=O)N[C@H](C)[C@@H](O)[C@]1(C)O [Example 3, 4″-O-(2-diethylaminoethanoyl)-6-O-methyl-9a-aza-9a-homoerythromycin A]",more than 79%,stable,stable,> 64,> 64,8,> 64,> 64,8,–,–
"CC[C@H]1OC(=O)[C@H](C)[C@@H](O[C@H]2C[C@@](C)(OC)[C@@H](OC(=O)CCN(CC)CC)[C@H](C)O2)[C@H](C)[C@@H](O[C@@H]2O[C@H](C)C[C@H](NC)[C@H]2O)[C@](C)(OC)C[C@@H](C)C(=O)N[C@H](C)[C@@H](O)[C@]1(C)O [Example 2, 3′-N-Demethyl-4″-O-(3-diethylaminopropionoyl)-6-O-methyl-9a-aza-9a-homoerythromycin A]",more than 70%,–,–,> 64,> 64,> 64,> 64,> 64,> 64,less than 2%,around 41%
